Our source for the IC50 values is US11891365B2, “3-alkyl-4-amido-bicyclic [4,5,0] hydroxamic acids as HDAC inhibitors” (Valo Health, Inc., priority 2015, dated 2024).

The structures appear in SMILES notation. Where only a bound is given, the exact number is not on record here.

In the assay the target is T1, Full length human recombinant HDAC6 protein (Homo sapiens, UniProt Q9UBN7).
T1 sequence (Q9UBN7 1-1215): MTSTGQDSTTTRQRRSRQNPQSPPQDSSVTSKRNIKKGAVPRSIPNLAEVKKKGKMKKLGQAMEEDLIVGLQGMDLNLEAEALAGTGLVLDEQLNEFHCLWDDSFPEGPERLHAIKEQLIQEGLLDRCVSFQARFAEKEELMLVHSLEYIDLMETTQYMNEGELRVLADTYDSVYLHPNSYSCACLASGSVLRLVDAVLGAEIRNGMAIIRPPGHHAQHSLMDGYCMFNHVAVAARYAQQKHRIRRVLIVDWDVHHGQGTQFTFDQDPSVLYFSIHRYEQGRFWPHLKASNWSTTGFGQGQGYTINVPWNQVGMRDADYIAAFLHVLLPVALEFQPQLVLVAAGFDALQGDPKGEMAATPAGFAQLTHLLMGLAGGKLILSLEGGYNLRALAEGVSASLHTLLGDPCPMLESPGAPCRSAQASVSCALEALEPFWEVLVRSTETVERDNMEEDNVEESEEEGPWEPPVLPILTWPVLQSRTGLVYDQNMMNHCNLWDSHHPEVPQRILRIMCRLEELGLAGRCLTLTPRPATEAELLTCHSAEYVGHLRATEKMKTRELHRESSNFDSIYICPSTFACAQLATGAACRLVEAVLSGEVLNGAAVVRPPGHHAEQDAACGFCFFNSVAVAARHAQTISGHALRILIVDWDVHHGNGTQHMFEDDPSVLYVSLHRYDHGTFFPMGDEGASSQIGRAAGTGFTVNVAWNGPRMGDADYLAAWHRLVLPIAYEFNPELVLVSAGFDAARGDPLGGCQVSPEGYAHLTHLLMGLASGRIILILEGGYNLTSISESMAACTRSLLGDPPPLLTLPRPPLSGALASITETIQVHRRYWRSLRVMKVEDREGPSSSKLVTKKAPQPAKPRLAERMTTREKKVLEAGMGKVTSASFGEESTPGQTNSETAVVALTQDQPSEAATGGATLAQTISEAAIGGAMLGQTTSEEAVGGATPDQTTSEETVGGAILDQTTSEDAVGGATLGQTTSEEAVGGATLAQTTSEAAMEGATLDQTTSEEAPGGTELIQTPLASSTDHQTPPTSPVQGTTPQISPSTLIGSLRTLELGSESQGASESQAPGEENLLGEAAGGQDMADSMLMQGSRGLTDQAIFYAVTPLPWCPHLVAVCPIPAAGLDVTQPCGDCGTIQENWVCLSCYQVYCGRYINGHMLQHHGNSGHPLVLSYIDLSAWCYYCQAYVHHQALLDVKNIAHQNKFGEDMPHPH
In words: In vitro histone deacetylase assay: enzymatic HDAC6 electrophoretic mobility shift assay. The format is biochemical. The following applies: 1 nM enzyme, 2 μM peptide substrate RHKK(Ac)-NH2, 25° C., 12 concentrations; read-out: Inhibitory Concentration (IC50) Values against HDAC6, Activity Range. (Mobility shift assays separate free from complexed probe on a gel.)

In the case of `CC(C)[C@H]1c2ccc(C(=O)NO)cc2OCCN1C(=O)C1CCOCC1` [(S)-N-hydroxy-5-isopropyl-4-(tetrahydro-2H-pyran-4-carbonyl)-2,3,4,5-tetrahydrobenzo[f][1,4]oxazepine-8-carboxamide], the IC50 was over 500 nM.
For `CC(Oc1ccccc1)C(=O)N1CCOc2cc(C(=O)NO)ccc2C1` (stereo not drawn) [N-hydroxy-4-(2-phenoxypropanoyl)-2,3,4,5-tetrahydrobenzo[f][1,4]oxazepine-8-carboxamide] the value was 100 to 500 nM.
Under `C[C@H](C(=O)N1CCOc2cc(C(=O)NO)ccc2C1)c1ccccc1` [(S)-N-hydroxy-4-(2-phenylpropanoyl)-2,3,4,5-tetrahydrobenzo[f][1,4]oxazepine-8-carboxamide] stands 100 to 500 nM; under `COc1ccccc1C(C)(C)C(=O)N1CCOc2cc(C(=O)NO)ccc2C1` [N-hydroxy-4-(2-(2-methoxyphenyl)-2-methylpropanoyl)-2,3,4,5-tetrahydrobenzo[f][1,4]oxazepine-8-carboxamide], over 500 nM.
Under `O=C(NO)c1cnc2c(n1)OCCN(C(=O)C1CCCCC1)C2` [8-(cyclohexanecarbonyl)-N-hydroxy-6,7,8,9-tetrahydropyrazino[2,3-f][1,4]oxazepine-3-carboxamide] stands at most 100 nM; under `C[C@H]1c2ccc(C(=O)NO)cc2OCCN1C(=O)[C@H]1CCOC1` [(S)-N-hydroxy-5-methyl-4-((S)-tetrahydrofuran-3-carbonyl)-2,3,4,5-tetrahydrobenzo[f][1,4]oxazepine-8-carboxamide], at most 100 nM.
